Assay results reported in ChEMBL document CHEMBL1149850, “Cytotoxic hydrolyzable tannins from Balanophora japonica” (J Nat Prod, 2008).

System: HepG2
Assay: Cytotoxicity against human HepG2 cells
Assay type: functional, cell-based

| SMILES | IC50 [µM] |
| --- | --- |
| O=C(/C=C/c1ccc(O)c(O)c1)O[C@@H]1O[C@H](COC(=O)[C@H]2CC(=O)c3oc(=O)c4cc(O)c(O)c(O)c4c32)[C@@H](O)[C@H](O)[C@H]1O [BALANOPHOTANNIN D] | 17.4 |
| O=C(O[C@@H]1O[C@H](COC(=O)[C@H]2CC(=O)c3oc(=O)c4cc(O)c(O)c(O)c4c32)[C@@H](O)[C@H](OC(=O)c2cc(O)c(O)c(O)c2)[C@H]1O)c1cc(O)c(O)c(O)c1 [BALANOPHOTANNIN E] | 4.22 |
| O=C(O)C[C@@H]1C(=O)O[C@H]2[C@H](O)[C@@H](O)[C@H](OC(=O)/C=C/c3ccc(O)c(O)c3)O[C@@H]2COC(=O)c2cc(O)c(O)c3c2[C@H]1C(=O)O3 [BALANOPHOTANNIN F] | 48.4 |
| O=C(O)C[C@@]12Oc3c(O)c(O)cc(C(=O)OC[C@H]4O[C@@H](OC(=O)/C=C/c5ccc(O)c(O)c5)[C@H](O)[C@@H](O)[C@@H]4O)c3[C@@H]1[C@H](C(=O)O)OC2=O [BALANOPHOTANNIN G] | 18 |
| O=c1[nH]cc(F)c(=O)[nH]1 [FLUOROURACIL] | 18.7 |
